# Entries after “also recorded” stand apart in the source; their conditions may differ. Ends that are not written are not given here.
# B1: NZ9000 (pNGnisTP): strain producing as a major product wild-type cell-anchored NisP (protein, UniProt Q07596 1-682, looked up)
# chain: MKKILGFLFIVCSLGLSATVHGETTNSQQLLSNNINTELINHNSNAILSSTEGSTTDSINLGAQSPAVKSTTRTELDVTGAAKTLLQTSAVQKEMKVSLQETQVSSEFSKRDSVTNKEAVPVSKDELLEQSEVVVSTSSIQKNKILDNKKKRANFVTSSPLIKEKPSNSKDASGVIDNSASPLSYRKAKEVVSLRQPLKNQKVEAQPLLISNSSEKKASVYTNSHDFWDYQWDMKYVTNNGESYALYQPSKKISVGIIDSGIMEEHPDLSNSLGNYFKNLVPKGGFDNEEPDETGNPSDIVDKMGHGTEVAGQITANGNILGVAPGITVNIYRVFGENLSKSEWVARAIRRAADDGNKVINISAGQYLMISGSYDDGTNDYQEYLNYKSAINYATAKGSIVVAALGNDSLNIQDNQTMINFLKRFRSIKVPGKVVDAPSVFEDVIAVGGIDGYGNISDFSNIGADAIYAPAGTTANFKKYGQDKFVSQGYYLKDWLFTTANTGWYQYVYGNSFATPKVSGALALVVDKYGIKNPNQLKRFLLMNSPEVNGNRVLNIVDLLNGKNKAFSLDTDKGQDDAINHKSMENLKESRDTMKQEQDKEIQRNTNNNFSIKNDFHNISKEVISVDYNINQKMANNRNSRGAVSVRSQEILPVTGDGEDFLPALGIVCISILGILKRKTKN
# modifications: full-length
# notes: strain producing as a major product wild-type cell-anchored NisP
# What was measured:
# [1] = tested on: L. lactis NZ9000 (pIL253 pNZ8048); experiment: Activity of the proteases in crude supernatants, antimicrobial assay against L. lactis; assay type: cell-based, Lactococcus lactis; details: 1 μl protease with 50 μl supernatant containing its corresponding prenisin variant
# Protocol: (§1) Activity tests were performed by well-diffusion assay as indicated by van Heel et al. ([2013]). L. lactis NZ9000 transformed with the appropriate plasmids or Micrococcus flavus were used as sensor strains as specified in each figure. The cleavage of nisin by NisP after SDS-PAGE was monitored washing the gel according to Bhunia et al. ([1987]) and covering with an overlay of GM17 soft agar inoculated with NZ9000 (pIL3BTC pNZnisA-E3) induced with 1 ng/ml nisin. The overlay was incubated for 16 h, after which the presence of inhibition zones was evaluated.
# To further compare the versatility of NisP in culture conditions with various proteases frequently used in biotechnology, we mutated the last four amino acids in the leader peptide (P4-P1) of nisin (i.e., ASPR) to insert a factor Xa (IEGR) or a thrombin (AVPR) cleavage site. We also mutated the arginine in position P1 of the leader peptide into glutamic acid, creating a cleavage site for the endoprotease Glu-C. Additionally, the proposed self-cleavage sequence of NisP (VSLR) (Figure 1, van der Meer et al., [1993]) was used to replace the ASPR sequence at the end of the nisin leader peptide. […] The cleavage was evaluated by activity against NZ9000 (pIL253 pNZ8048), which is resistant to the erythromycin and chloramphenicol present in the supernatants of the substrate producer strains but sensitive to nisin. […]
# [2] = tested on: NisP; experiment: Cleavage of nisin mutants by NisP in crude supernatants or purified peptide, masses by MALDI-TOF; assay type: biochemical, Lactococcus lactis; details: His-tagged purified NisP, overnight 37°C; for Aberrant cleavage / misprocessing by NisP: culture pH (4.5–5.0) or pH 6.0, MALDI-TOF
# Protocol: Alternatively, supernatants containing nisin mutant peptides produced after induction were divided into two fractions; one in which the pH was adjusted to 6.0 and the other one where the pH was the actual fermentation pH. They were incubated overnight at 37°C with or without His-tagged purified NisP at a ratio of 1000:1. After the incubation, the supernatants were precipitated using TCA and resuspended in 1/20 volume 0.05% acetic acid. For the mutants that were produced in lower amounts, larger volumes were induced and the peptides were purified by cationic exchange chromatography as described before and separated by reverse phase chromatography using a Jupiter 4 μm Proteo 90 Å 250 × 4.6 mm C12 analytical column (Phenomenex). The column was equilibrated in 20% organic solvent (acetonitrile 0.1% TFA) before the sample injection. It was washed for 5 min before applying a linear gradient from 20 to 50% organic solvent in 20 min. 1 μl of each collected peak was used for mass-spectrometry determination.
# Mass spectrometry analysis of the samples was performed by matrix-assisted laser desorption/ionization (MALDI) time-of-flight (ToF) in an ABI Voyager DE Pro (Applied Biosystems) operating in linear mode as previously described using external calibration (van Heel et al., [2013]). Briefly, 1 μl sample was spotted, dried and washed with 5 μL Milli-Q water, on the target. Next, 1 μl of α-cyano-4-hydroxycinnamic acid 5 mg/ml (Sigma-Aldrich) was spotted on the sample.
# We designed a set of nisin mutants to investigate the specificity of NisP (Figure 4). For all these mutants, supernatants were collected after induction and divided into three fractions. NisP was added to two of these fractions, one maintaining the pH of the culture (4.5–5.0) and the other fraction was adjusted to pH 6.0. The third fraction was used as an untreated control. After cleavage, the masses of the peptides were monitored by MALDI-TOF (Table 2).
# [3] = tested on: L. lactis NZ9000 (pNZnisP-8H); experiment: Antimicrobial activity of purified prelantibiotics against NisP producing sensor strain; assay type: cell-based, Lactococcus lactis; details: compared to the plasmid free strain, data not shown
# Protocol: as §1
# The substrate tolerance of soluble NisP was tested using a set of different lantibiotics. These were produced using the nisin modification machinery encoded in NZ9000 (pIL3BTC pNZE3-mutant) and purified by cationic exchange chromatography. For this purpose, NZ9000 (pNZ-nisP-8H) was used as a sensor strain and tested using gallidermin (van Heel et al., [2013]) and two lantibiotics detected in the genome of Streptococcus pneumoniae, PneA1 and PneA2 encoded in the genes spr1765 and spr1766, respectively, which were heterologously expressed in L. lactis fused to the nisin leader peptide (Majchrzykiewicz et al., [2010]) (Figure 5). […] The activity was restored when a strain producing soluble NisP was employed.
# Figure 5 Antimicrobial activity of purified modified lantibiotics gallidermin, 1215 and 1268 against L. lactis NZ9000 (pNZnisP-8H). […]
# [4] = tested on: Micrococcus flavus; experiment: Activation of prenisin with supernatants containing NisP variants, antimicrobial assay; assay type: cell-based; details: supernatants after 3 h induction; in the first test 5 μl with 50 μl prenisin
# Protocol: as §1
# The supernatants of the strains NZ9000 (pNZnisPsl-8H) and NZ9000 (pNZnisPsl-8K) were tested for the presence of protease activity after 3 h of induction with nisin. In each case, 5 μl of the supernatant was mixed with 50 μl of prenisin obtained by TCA precipitation of induced NZ9000 (pIL3BTC pNZnisA-E3). […]
# In a second approach, we attempted to reduce the size of NisP, while keeping the active subtilisin-like domain intact. […] Additionally, the size of the inhibition halo measured is larger in the samples activated with the soluble protease present in the supernatants of these three engineered strains compared to the samples activated with the supernatant of L. lactis NZ9000 (pNGnisTP), which produces as a major product wild-type cell-anchored NisP.
molecule,measurement,setting,value
thrombin,Activity of the protease in culture conditions (release of active nisin),[1],active; also recorded: able to cleave in culture conditions
"nisin I1D: Nisin I1D mutant (MSTKDFNLDLVSVSKKDSGASPRDTSISLCTPGCKTGALMGCNMKTATCHCSIHVSK; ends and bridges not checked; cysteine pairing not given here; UniProt P13068 1-57, looked up, variant I1D)",Cleavage by NisP,"[2]; ratio 1000:1, culture pH (4.5–5.0) or pH 6.0, MALDI-TOF","a small fraction of uncleaved peptide after the incubation of the mutant nisin I1D with the protease, which indicates reduced cleavage efficiency"
"nisin-ringA-less: Nisin (T2V S3A S5A C7A) mutant (MSTKDFNLDLVSVSKKDSGASPRIVAIALATPGCKTGALMGCNMKTATCHCSIHVSK; not fully specified; cysteine pairing not given here; UniProt P13068 1-57, looked up, variant T2V S3A S5A C7A)",Aberrant cleavage / misprocessing by NisP,[2],small peaks corresponding to peptides cleaved at abnormal P1 or P2 positions in the leader peptide; also recorded: a small fraction of nisin lacking the first amino acid(s)
"nisin-C7A: Nisin C7A mutant, lacking the first ring (MSTKDFNLDLVSVSKKDSGASPRITSISLATPGCKTGALMGCNMKTATCHCSIHVSK; not fully specified; cysteine pairing not given here; UniProt P13068 1-57, looked up, variant C7A)",Aberrant cleavage / misprocessing by NisP,[2],small peaks corresponding to peptides cleaved at abnormal P1 or P2 positions in the leader peptide; also recorded: a small fraction of nisin lacking the first amino acid(s)
"nisin: mature model lantibiotic (ITSISLCTPGCKTGALMGCNMKTATCHCSIHVSK; Lantibiotic nisin-A; UniProt P13068 24-57, looked up)",Sensitivity of the NisP producing strain to nisin,[3],increased sensitivity
trypsin,Activity of the protease in culture conditions (release of active nisin),[1],able to cleave in culture conditions
same,Protease activity (antimicrobial activity after activation of prenisin),[4],antimicrobial activity only in the positive controls
"nisin I1K: Nisin I1K mutant (MSTKDFNLDLVSVSKKDSGASPRKTSISLCTPGCKTGALMGCNMKTATCHCSIHVSK; ends and bridges not checked; cysteine pairing not given here; UniProt P13068 1-57, looked up, variant I1K)",Aberrant cleavage / misprocessing by NisP,[2],a small fraction of mature nisin with a mass difference consistent with the presence of Arg P1 in the mature peptide
same,Aberrant cleavage / misprocessing by NisP,[2]; listed as I1K,a small additional peak detected by mass-spectrometry consistent with a cleavage between positions P2 and P1
B1,Protease activity (antimicrobial activity after activation of prenisin),[4],antimicrobial activity only in the positive controls
